Results as given in ChEMBL document CHEMBL1201862, “PubChem BioAssay data set” (2004).
Calls of active or inactive are those of the source.

Tests used:
[1] = cAMP pathway inhibition in counterscreen cell line – TR-FRET cAMP detection, counter-screen for MC4R biased antagonist project, dose response (AID 602305); type: functional, cell-based;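 also: U2OS cells stimulated with forskolin near its EC80 as the cAMP inducer; potency is for inhibition of forskolin-stimulated cAMP signaling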
Melanocortin receptor 4 = Melanocortin receptor 4 (Homo sapiens, UniProt P32245); assay: inhibitors of MC4R cAMP signaling – cell-based, TR-FRET, biased antagonists, dose response (AID 602298); type: functional;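 also: antagonist potency against agonist-stimulated cAMP production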
Chain of Melanocortin receptor 4 (P32245 whole entry): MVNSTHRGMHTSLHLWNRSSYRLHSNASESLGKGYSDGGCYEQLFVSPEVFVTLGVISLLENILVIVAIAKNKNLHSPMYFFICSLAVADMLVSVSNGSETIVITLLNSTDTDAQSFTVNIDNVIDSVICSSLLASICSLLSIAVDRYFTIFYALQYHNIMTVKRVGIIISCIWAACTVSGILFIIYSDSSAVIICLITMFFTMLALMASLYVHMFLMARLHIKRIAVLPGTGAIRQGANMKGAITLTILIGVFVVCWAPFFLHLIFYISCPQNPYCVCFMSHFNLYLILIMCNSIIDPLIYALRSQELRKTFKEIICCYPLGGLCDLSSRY

[2] = molecular target: T1, Microphthalmia-associated transcription factor (Homo sapiens, UniProt O75030); assay: reducers of TRPM1 reporter luminescence, concentration series – cell-based, SK-MEL-5, cherry-picked, set 3, MITF inhibitor project, dose response (AID 493073); type: functional;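 also: SK-MEL-5 melanoma cells with luciferase driven by the MITF target TRPM1 promoter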
T1 sequence (O75030 whole entry): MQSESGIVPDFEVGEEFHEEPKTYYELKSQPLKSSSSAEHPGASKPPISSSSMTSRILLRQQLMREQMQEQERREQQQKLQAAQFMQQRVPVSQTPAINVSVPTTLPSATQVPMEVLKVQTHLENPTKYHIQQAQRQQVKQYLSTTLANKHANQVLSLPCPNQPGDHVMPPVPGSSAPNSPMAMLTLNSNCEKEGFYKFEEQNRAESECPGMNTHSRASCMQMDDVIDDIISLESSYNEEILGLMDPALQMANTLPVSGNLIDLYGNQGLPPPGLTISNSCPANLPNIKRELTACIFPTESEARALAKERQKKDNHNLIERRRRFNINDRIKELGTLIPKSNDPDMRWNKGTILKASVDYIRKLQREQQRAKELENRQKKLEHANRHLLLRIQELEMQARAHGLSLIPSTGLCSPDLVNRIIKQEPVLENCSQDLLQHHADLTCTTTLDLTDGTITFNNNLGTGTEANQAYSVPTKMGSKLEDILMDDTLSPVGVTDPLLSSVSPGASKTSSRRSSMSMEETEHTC

A-375 = assay: proliferation inhibition in MITF-low A375 cells – cell-based, cherry-pick samples, set 2, counter-screen for MITF modulator project, dose response (AID 540335); type: functional; settings: Homo sapiens
[3] = molecular target: ATP-dependent molecular chaperone HSP82 (Candida albicans (strain WO-1) (Yeast), UniProt C4YTQ8); assay: steroid-induced GRE reporter decrease in yeast – S. cerevisiae, luminescence, Hsp90 inhibitor project, dose response (AID 2400); type: functional, cell-based;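 also: beta-galactosidase luminescence from glucocorticoid response element reporter as proxy for Hsp90 function; inhibitor potency where signal loss means Hsp90 inhibition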
Chain of ATP-dependent molecular chaperone HSP82 (C4YTQ8 whole entry): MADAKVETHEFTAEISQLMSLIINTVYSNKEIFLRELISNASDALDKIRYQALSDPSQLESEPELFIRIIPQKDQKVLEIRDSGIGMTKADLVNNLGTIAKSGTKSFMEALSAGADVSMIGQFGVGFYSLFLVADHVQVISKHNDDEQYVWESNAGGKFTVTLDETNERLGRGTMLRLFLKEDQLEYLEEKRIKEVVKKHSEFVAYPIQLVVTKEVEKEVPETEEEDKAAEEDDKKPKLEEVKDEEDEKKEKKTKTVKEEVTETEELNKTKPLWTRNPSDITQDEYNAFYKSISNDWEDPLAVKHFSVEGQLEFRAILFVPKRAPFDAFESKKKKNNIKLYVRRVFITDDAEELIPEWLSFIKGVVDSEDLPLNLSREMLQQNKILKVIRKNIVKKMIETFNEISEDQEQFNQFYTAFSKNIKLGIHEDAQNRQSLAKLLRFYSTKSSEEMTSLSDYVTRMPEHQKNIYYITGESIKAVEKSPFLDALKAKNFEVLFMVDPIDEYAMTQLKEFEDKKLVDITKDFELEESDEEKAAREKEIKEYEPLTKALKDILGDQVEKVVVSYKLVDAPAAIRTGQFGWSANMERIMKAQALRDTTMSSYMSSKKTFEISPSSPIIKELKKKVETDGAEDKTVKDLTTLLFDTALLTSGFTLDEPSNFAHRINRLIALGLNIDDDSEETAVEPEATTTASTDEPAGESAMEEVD

[4] = NIH-3T3 fibroblast cytotoxicity, dose response, cytotoxicity control, cell-based, fluorescence, Alamar Blue, secondary assay (AID 2327); type: functional;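 also: NIH-3T3 mouse fibroblasts cultured with fluconazole at 8 µg/mL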
[5] = NIH3T3 cell viability loss – ATP luminescence, mouse fibroblasts, counter-screen, dose response (AID 2010); type: functional, cell-based;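 also: cells exposed to compound for about 90 hours before reading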
[6] = Trypanosoma cruzi growth suppression in host cells – NIH3T3 host cells, beta-gal luminescence, confirmation (AID 2044); type: functional, cell-based;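 also: intracellular parasites grown in NIH/3T3 mouse fibroblasts as host cells; luminescent beta-galactosidase reporter signal from transgenic T. cruzi replicating inside host cells; inhibitors lower the luminescence signal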
[7] = fluconazole-exposed Candida albicans growth modulators – fluorescence, retest, confirmation (AID 2467); type: functional, cell-based
Beta-galactosidase = Beta-galactosidase (Escherichia coli, UniProt Q8VNN2); assay: detection-enzyme interference by beta-gal modulators – biochemical, E. coli enzyme, set 3, artefact control for CCR6 antagonist project, dose response (AID 504712); type: functional
Chain of Beta-galactosidase (Q8VNN2 whole entry): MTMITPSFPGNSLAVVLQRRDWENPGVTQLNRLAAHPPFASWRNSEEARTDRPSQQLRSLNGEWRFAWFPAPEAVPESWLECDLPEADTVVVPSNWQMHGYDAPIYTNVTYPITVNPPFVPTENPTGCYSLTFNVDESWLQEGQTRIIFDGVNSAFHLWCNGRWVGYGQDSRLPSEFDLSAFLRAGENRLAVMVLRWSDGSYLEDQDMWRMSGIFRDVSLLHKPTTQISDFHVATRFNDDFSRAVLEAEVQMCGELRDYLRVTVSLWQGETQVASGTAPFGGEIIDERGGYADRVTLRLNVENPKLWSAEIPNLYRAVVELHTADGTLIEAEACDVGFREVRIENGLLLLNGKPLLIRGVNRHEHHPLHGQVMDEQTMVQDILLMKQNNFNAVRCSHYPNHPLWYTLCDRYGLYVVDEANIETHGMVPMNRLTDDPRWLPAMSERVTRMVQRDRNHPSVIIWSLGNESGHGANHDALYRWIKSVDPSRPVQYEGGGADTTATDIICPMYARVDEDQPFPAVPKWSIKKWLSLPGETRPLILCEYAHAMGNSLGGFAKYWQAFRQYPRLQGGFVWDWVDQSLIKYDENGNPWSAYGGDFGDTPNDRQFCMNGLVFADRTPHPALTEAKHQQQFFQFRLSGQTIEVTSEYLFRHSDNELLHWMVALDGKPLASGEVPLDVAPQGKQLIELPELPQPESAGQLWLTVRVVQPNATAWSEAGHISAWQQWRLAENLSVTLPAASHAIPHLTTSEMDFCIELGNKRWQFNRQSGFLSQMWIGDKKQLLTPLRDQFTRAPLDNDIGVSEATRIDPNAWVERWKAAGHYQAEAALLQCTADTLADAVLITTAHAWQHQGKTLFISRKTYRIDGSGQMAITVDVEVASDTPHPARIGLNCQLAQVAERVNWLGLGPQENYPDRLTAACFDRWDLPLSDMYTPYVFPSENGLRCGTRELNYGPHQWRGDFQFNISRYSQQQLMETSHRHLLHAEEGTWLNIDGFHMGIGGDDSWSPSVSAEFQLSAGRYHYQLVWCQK

[8] = molecular target: T2, Serine/threonine-protein phosphatase (Candida dubliniensis (strain CD36 / CBS 7987 / NCPF 3949 / NRRLY-17841) (Yeast), UniProt B9W6M3); assay: blockers of CaCl2-induced CDRE-lacZ signaling – S. cerevisiae, luminescence, secondary, dose response (AID 2388); type: functional, cell-based;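 also: yeast reporter cells carrying a calcineurin-responsive lacZ construct stimulated with calcium chloride; luminescent beta-galactosidase reporter signal in whole cells rather than isolated phosphatase activity; potency for inhibition where a drop in reporter signal means calcineurin blockade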
T2 sequence (B9W6M3 whole entry): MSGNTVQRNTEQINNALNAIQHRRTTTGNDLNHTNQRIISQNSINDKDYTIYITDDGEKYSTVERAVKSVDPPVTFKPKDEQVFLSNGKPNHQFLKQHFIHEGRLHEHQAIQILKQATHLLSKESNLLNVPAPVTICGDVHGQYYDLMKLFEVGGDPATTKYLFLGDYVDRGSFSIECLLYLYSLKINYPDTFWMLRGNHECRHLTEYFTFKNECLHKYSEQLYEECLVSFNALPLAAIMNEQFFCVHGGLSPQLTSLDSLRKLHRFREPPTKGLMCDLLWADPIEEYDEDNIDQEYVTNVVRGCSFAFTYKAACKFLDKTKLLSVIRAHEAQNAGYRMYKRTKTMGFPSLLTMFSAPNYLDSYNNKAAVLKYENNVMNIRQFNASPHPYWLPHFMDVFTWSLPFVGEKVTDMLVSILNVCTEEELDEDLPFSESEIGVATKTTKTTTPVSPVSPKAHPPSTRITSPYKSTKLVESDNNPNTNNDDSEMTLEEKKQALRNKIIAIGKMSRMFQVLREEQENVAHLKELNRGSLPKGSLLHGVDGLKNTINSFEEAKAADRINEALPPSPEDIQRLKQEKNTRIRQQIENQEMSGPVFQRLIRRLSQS

Vero [9] = assay: cells; type: functional, cell-based; settings: Chlorocebus sabaeus
Vero [10] = assay: cells; type: functional; settings: Chlorocebus sabaeus
[11] = viability of uninfected HEp-2 cells – cell-based, HTS, cytotoxicity control for RSV inhibitor project, dose response (AID 2410); type: functional; settings: human respiratory syncytial virus
HEK293 [12] = assay: EBV LMP1 TES2 canonical NF-kB signalling blockers – cell-based, HEK293, luciferase, cherry-pick, dose response (AID 588343); type: functional; settings: Homo sapiens
[13] = molecular target: T3, Latent membrane protein 1 (Human herpesvirus 4 (strain B95-8), UniProt P03230); assay: LMP1 TES1 pathway selectivity over dsRED control – imaging, HEK293T, dual-color eGFP/dsRED, cherry-picks, selectivity assay for LMP1 NF-kB inhibitor project, dose response (AID 588398); type: functional, cell-based
T3 sequence (P03230 whole entry): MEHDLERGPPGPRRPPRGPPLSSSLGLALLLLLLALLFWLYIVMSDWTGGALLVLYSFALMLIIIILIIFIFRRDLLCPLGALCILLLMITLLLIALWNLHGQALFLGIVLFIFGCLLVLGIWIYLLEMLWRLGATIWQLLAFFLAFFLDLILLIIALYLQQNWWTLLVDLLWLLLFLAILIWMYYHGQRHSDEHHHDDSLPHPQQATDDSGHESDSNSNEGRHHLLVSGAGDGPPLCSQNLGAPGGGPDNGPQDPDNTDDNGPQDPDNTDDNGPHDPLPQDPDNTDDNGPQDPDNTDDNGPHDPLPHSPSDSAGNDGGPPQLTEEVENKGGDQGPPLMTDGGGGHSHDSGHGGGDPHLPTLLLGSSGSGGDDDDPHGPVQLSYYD

[14] = molecular target: Dual specificity protein kinase CLK1 (Homo sapiens, UniProt P49759); assay: inhibition of human CLK1 activity – biochemical, cherry-picked samples, selectivity assay for Dyrk1A inhibitor project, dose response (AID 588811)
Chain of Dual specificity protein kinase CLK1 (P49759 whole entry): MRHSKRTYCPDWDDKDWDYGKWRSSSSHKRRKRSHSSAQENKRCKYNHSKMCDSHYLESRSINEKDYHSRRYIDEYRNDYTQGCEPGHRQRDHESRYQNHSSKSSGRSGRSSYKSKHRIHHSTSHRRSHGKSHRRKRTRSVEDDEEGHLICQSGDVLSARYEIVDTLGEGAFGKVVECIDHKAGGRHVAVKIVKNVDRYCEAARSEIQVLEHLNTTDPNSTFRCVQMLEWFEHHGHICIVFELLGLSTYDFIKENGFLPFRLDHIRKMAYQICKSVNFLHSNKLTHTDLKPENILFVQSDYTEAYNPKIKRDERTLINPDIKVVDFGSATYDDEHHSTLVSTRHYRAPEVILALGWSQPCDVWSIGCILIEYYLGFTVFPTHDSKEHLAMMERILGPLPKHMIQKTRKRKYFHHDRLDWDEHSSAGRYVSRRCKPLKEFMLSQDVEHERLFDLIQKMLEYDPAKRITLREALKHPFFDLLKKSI

[15] = molecular target: Dual specificity tyrosine-phosphorylation-regulated kinase 1A (Rattus norvegicus, UniProt Q63470); type: biochemical, Homo sapiens
[16] = molecular target: T4, Mannose-6-phosphate isomerase (Homo sapiens, UniProt P34949); assay: MPI inhibition at elevated mannose 6-phosphate – biochemical, fluorescence intensity, high mannose 6-phosphate, primary screen (AID 1220)
T4 sequence (P34949 whole entry): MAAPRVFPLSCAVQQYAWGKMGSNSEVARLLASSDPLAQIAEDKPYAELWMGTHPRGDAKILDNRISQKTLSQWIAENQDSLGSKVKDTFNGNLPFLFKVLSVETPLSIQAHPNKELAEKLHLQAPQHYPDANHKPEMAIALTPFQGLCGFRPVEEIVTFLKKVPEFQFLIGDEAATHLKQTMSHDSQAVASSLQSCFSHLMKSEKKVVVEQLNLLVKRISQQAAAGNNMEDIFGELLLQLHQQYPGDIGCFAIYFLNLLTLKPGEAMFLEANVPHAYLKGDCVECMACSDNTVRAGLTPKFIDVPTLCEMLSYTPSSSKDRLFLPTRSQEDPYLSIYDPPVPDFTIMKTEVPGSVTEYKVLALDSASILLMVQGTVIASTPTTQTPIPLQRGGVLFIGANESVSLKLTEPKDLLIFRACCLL

[17] = molecular target: T5, Nucleotide-binding oligomerization domain-containing protein 1 (Homo sapiens, UniProt Q9Y239); assay: blockers of NOD1 pathway activity – revised, SAR follow-up (AID 2333); type: functional
T5 sequence (Q9Y239 whole entry): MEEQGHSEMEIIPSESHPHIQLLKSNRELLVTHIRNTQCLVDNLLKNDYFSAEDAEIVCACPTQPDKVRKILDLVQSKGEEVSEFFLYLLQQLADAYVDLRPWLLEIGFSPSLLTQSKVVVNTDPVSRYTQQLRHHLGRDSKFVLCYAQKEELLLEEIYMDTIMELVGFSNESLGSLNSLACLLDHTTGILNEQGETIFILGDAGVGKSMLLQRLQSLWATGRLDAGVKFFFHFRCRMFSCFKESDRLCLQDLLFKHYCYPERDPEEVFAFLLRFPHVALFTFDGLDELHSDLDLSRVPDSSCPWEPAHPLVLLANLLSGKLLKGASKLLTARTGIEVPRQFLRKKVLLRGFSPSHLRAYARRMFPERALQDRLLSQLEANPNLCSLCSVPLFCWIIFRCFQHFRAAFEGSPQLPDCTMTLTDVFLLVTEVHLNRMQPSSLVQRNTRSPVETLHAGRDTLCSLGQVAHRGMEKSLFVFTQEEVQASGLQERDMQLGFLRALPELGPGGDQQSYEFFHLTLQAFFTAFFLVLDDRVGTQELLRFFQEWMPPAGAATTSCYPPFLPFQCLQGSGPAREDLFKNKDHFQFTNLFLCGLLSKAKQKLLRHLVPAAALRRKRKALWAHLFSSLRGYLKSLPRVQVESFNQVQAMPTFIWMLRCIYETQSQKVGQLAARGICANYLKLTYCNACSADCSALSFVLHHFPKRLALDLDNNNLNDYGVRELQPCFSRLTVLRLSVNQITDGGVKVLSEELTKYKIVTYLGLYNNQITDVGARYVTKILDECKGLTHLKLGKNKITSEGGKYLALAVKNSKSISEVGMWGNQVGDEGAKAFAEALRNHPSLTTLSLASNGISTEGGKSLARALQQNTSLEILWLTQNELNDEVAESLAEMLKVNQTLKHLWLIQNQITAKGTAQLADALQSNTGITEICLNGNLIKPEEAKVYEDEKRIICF

Tumor necrosis factor = Tumor necrosis factor (Homo sapiens, UniProt P01375); assay: analog potency on TNFa NF-kB signaling – cell-based, revised, SAR follow-up (AID 2337); type: functional
Chain of Tumor necrosis factor (P01375 whole entry, the tested form may be a part): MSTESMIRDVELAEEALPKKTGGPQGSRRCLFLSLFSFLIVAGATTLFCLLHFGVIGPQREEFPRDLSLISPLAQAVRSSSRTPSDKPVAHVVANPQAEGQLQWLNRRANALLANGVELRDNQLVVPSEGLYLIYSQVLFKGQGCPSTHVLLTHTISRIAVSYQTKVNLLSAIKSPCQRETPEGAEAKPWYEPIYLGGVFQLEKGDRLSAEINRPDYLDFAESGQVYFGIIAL

[18] = molecular target: Nucleotide-binding oligomerization domain-containing protein 2 (Homo sapiens, UniProt Q9HC29); assay: PubChem AID 2334; type: functional
Chain of Nucleotide-binding oligomerization domain-containing protein 2 (Q9HC29 whole entry, the tested form may be a part): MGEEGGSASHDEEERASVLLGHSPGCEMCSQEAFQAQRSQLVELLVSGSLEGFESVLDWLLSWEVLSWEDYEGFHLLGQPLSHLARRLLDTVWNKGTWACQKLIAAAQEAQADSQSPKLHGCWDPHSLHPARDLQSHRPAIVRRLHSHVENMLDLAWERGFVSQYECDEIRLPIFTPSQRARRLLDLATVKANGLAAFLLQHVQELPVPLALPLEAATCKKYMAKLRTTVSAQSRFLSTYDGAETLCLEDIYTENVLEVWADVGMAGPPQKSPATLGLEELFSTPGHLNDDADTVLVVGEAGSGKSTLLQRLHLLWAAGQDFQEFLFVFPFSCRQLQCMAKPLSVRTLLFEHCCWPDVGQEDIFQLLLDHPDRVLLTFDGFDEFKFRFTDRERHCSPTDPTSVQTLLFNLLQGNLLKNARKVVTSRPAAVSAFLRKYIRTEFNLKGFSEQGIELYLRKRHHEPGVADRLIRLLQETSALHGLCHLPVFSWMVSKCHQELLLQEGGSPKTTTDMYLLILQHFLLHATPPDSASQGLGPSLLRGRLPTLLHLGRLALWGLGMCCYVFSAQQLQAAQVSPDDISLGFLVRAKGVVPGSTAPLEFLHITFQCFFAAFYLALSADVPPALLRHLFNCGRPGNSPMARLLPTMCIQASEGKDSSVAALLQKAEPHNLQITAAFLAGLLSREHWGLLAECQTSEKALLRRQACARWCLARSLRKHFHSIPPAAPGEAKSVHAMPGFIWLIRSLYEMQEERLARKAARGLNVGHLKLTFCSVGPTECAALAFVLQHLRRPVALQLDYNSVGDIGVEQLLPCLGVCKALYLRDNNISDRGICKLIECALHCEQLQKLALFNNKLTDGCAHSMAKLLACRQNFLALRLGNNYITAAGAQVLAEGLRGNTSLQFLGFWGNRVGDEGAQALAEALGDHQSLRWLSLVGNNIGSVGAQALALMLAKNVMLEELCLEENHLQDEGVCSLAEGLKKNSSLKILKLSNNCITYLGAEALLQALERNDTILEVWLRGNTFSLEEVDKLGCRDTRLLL

HEK293 [19] = assay: cells; settings: Homo sapiens
cells [20] = type: functional, cell-based
INS1 = assay: INS-1E survival protection against cytokine death – cell-based, luminescence, retest, dose response (AID 449756); type: functional; settings: Rattus norvegicus;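 also: cell death triggered by IL-1 beta plus TNF-alpha plus IFN-gamma mixture; protective hits raise ATP signal compared with cytokine alone wells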
BJ [21] = assay: BJ-TERT fibroblast viability loss – cell-based, RAS-independent, luminescence, dose response (AID 1933); type: functional; settings: Homo sapiens
[22] = DRD fibroblast viability loss – cell-based, non-viral oncogenic, luminescence, dose response (AID 1934); type: functional; settings: Homo sapiens
BJ [23] = assay: cells; type: functional, cell-based; settings: Homo sapiens
cells [24] = type: functional, cell-based; remark: listed apart in the source

Compound: O=C1c2cccc([N+](=O)[O-])c2C(=O)N1c1ccccc1
- IC50 [1]: > 64.6 µM (inactive)
- IC50 (Melanocortin receptor 4): > 64.6 µM (inactive)

Compound: CCOc1c(Br)cc(CNC2CCCCCCC2)cc1OC
- AC50 [2]: 20.5 µM (active)
- AC50 (A-375): 21.9 µM (active)

Compound: CC(=O)NC(c1ccc(C)cc1)c1cc([N+](=O)[O-])c2cccnc2c1O (centres undefined)
- EC50 [3]: 40.3 µM (active)
- EC50 [4]: 47.2 µM (active)
- EC50 [5]: < 6 µM (inconclusive)
- EC50 [6]: 1.16 µM (active)
- EC50 [7]: 0.334 µM (active)
- IC50 (Beta-galactosidase): > 66.6 µM (inactive)
- EC50 [8]: > 180 µM (inactive)

Compound: Cc1csc(NC(=O)Cc2coc3cc(C)c(C(C)C)cc23)n1
- IC50 (Vero [9]): 9.7 µM (active)
- CC50 (Vero [10]): 23 µM (active)
- CC50 [11]: 6.08 µM (active)

Compound: CCOC(=O)CC(NC(=O)C(Cc1ccc(N(CCCl)CCCl)cc1)NC(C)=O)C(=O)OCC (centres undefined)
- AC50 (HEK293 [12]): 1.65 µM (active)
- AC50 [13]: 16.2 µM (active)

Compound: CCOc1ccc2nc(NC(=O)C3CCCN(S(=O)(=O)c4cccc5nonc45)C3)sc2c1 (centres undefined)
- EC50 [5]: > 60 µM (not active)
- EC50 [6]: 2.11 µM (active)
- IC50 [1]: > 64.6 µM (inactive)
- IC50 (Melanocortin receptor 4): > 64.6 µM (inactive)

Compound: c1csc(CCNc2ncnc3ccc(-c4ccc5c(c4)OCO5)cc23)c1
- AC50 [14]: < 0.00195 µM (active)

Compound: O=C(O)COc1ccc(/C=C/c2nc3ccc([N+](=O)[O-])cc3s2)cc1
- AC50 [14]: 0.4 µM (active)
- EC50 [5]: > 60 µM (not active)
- EC50 [6]: > 60 µM (not active)
- AC50 [15]: 0.348 µM (active)

Compound: COc1ccc(NC(S)=Nc2cccc3cnccc23)cc1
- AC50 [15]: 7.84 µM (active)
- IC50 [16]: > 50 µM (not active)

Compound: O=C(NC1CCCc2c1cnn2-c1ccccc1F)c1ccnn1-c1ccccc1 (centres undefined)
- IC50 [17]: > 20 µM (inactive)
- IC50 (Tumor necrosis factor): > 20 µM (inactive)
- IC50 [18]: > 20 µM (inactive)
- IC50 (HEK293 [19]): > 20 µM (inactive)

Compound: CC(NC(=O)c1ccc([N+](=O)[O-])o1)C1CC2CCC1C2 (centres undefined)
- IC50 (Vero [9]): > 25 µM (active)
- CC50 (Vero [10]): 19.9 µM (active)

Compound: c1cncc(CNc2ccnc(-c3ccc4[nH]ncc4c3)n2)c1
- AC50 [14]: 0.385 µM (active)

Compound: O=C1CSC(=S)N1Cc1ccccc1
- AC50 (HEK293 [12]): 2.11 µM (active)
- AC50 [13]: 119 µM (active)

Compound: CCN(CC)c1ccc(/C=N/NC(=O)c2cnccn2)c(O)c1
- EC50 (cells [20]): 40 µM (active)
- AC50 (HEK293 [12]): 5.61 µM (active)
- AC50 [13]: 13.2 µM (active)
- AC50 (INS1): 0.55 µM (active)
- EC50 (BJ [21]): 5.61 µM (active)
- EC50 [22]: 2.17 µM (active)
- EC50 (BJ [23]): 5.54 µM (active)
- EC50 (cells [24]): 8.38 µM (active)
